Source: US9790169B2, “IDO inhibitors” (BRISTOL-MYERS SQUIBB COMPANY, priority 2015, dated 2017)
Where “and” joins values, the source holds several entries; their conditions need not be identical. Identical values can stand only once.

Each compound was assayed against human IDO1 (Homo sapiens, UniProt P14902) (assay: Assessment of human IDO-1 inhibitory activity in Hela cells (Interferon-gamma stimulated HeLa cells, Ehrlich reagent, absorbance 490 nm)). Settings: Hela Human IDO-1 cellular assay.
Chain of human IDO1 (P14902 whole entry): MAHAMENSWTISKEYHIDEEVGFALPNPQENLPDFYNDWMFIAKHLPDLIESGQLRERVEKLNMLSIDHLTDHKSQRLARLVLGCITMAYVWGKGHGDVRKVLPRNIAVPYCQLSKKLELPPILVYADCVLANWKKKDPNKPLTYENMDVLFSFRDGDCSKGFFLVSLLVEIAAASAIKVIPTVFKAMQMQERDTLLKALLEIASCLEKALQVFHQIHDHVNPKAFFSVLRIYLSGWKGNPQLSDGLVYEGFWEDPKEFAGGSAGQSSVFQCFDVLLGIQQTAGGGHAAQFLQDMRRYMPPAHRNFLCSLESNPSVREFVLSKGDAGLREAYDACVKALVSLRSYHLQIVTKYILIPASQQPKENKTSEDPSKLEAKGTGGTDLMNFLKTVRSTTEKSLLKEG
Assay type: cell-based
Design: endogenous in cells; host or cells: HeLa cells stimulated with interferon-gamma
Method in brief: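 HeLa cells pre-incubated with compound 1 h at 37 °C, then stimulated with human IFN-γ (10 ng/ml final) or murine IFN-γ (5 ng/ml final) for 18 h. Kynurenine read with Ehrlich reagent at 490 nm after TCA (3%) and 50 °C treatment; IC50 normalized to unstimulated (100%) and IFN-γ-only (0%) wells.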
For `CCN(c1ccc([C@@H](COC)CC(=O)O)cc1Nc1ccc(C#N)c(C)c1)C1CCOCC1` (single isomer, unassigned) [Example 354], the IC50 was less than 50 nM. Compound `CCC1COCCN1c1ccc([C@H](COC)CC(=O)O)cc1Nc1ccc(C#N)c(F)c1` (single isomer, unassigned) [Example 1304] has an IC50 of less than 50 nM. Compound `COCC(CC(=O)O)c1ccc(N(C)C2CCOCC2)c(Nc2ccc(Cl)cc2)c1` (single isomer, unassigned) [Example 884, 3-(3-((4-chlorophenyl)amino)-4-(methyl(tetrahydro-2H-pyran-4-yl)amino)phenyl)-4-methoxybutanoic acid] has an IC50 of less than 5 nM. In the case of `CCN(c1ccc([C@@H](COC)CC(=O)O)cc1Nc1ccc(C#N)c(C(F)(F)F)c1)C1CCOCC1` (single isomer, unassigned) [Example 383], the IC50 is reported as greater than 50 nM. In the case of `COCC(CC(=O)O)c1ccc(N(C)C2CCOCC2)c(NC(=O)Nc2ccc(Cl)cc2F)c1` (single isomer, unassigned) [Example 886, 3-(3-(3-(4-Chloro-2-fluorophenyl)ureido)-4-(methyl(tetrahydro-2H-pyran-4-yl)amino)phenyl)-4-methoxybutanoic acid], the IC50 is reported as greater than 50 nM. `CC[C@@H](CC(=O)O)c1ccc(N(CC)C2CCOCC2)c(Nc2ccc(OC)cn2)c1` (single isomer, unassigned) [Example 462] was tested, and the IC50 was less than 5 nM. For `CCCN(c1ccc([C@H](COC)CC(=O)O)cc1Nc1ccc(F)cc1)C1CCOCC1` (single isomer, unassigned) [Example 572], the IC50 was less than 50 nM. `COCCN(c1ccc(C(COC)CC(=O)O)cc1Nc1ccc(C#N)cc1)C1CCOCC1` (single isomer, unassigned) [Example 257, 3-(3-((4-cyanophenyl)amino)-4-((2-methoxyethyl)(tetrahydro-2H-pyran-4-yl)amino)phenyl)-4-methoxybutanoic acid] gave an IC50 of less than 50 nM. `CCOc1ncc(Nc2cc([C@H](CC)CC(=O)Nc3ncco3)ccc2N(CC)C2CCOCC2)cn1` [Example 1346, (R)-3-(3-((2-Ethoxypyrimidin-5-yl)amino)-4-(ethyl(tetrahydro-2H-pyran-4-yl)amino)phenyl)-N-(oxazol-2-yl)pentanamide] showed an IC50 of less than 50 nM. In the case of `CCCN(c1ccc(C(C)(C)CC(=O)O)cc1Nc1cnc(OC)nc1)C1CCOCC1` [Example 23, 3-(3-((2-methoxypyrimidin-5-yl)amino)-4-(propyl(tetrahydro-2H-pyran-4-yl)amino)phenyl)-3-methylbutanoic acid], the IC50 is reported as less than 50 nM. For `CCC(CC(=O)O)c1ccc(N(CC)C2CCN(Cc3ccccc3)CC2)c(Nc2ccc(C#N)cc2)c1` (single isomer, unassigned) [Example 940, 3-(4-((1-benzyl-piperidin-4-yl)(ethyl)amino)-3-((4-cyano-phenyl)amino)phenyl) pentanoic acid], the IC50 was less than 5 nM. `CCCN(c1ccc([C@@H](COC)CC(=O)O)cc1Nc1cnc(OCC)nc1)C1CCOCC1` (single isomer, unassigned) [Example 559] showed an IC50 of less than 50 nM. With `CC[C@H](CC(=O)O)c1ccc(N(CC)C2CCOCC2)c(Nc2cnc(OC)cn2)c1` (single isomer, unassigned) [Example 507] the IC50 was less than 5 nM. `CCOc1cnc(Nc2cc([C@H](CC)CC(=O)O)ccc2N(CC)C2CCOCC2)cn1` (single isomer, unassigned) [Example 508] gave an IC50 of less than 5 nM. Work on `CCN(c1ccc([C@@H](COC)CC(=O)O)cc1Nc1ccc(Cl)cn1)C1CCOCC1` (single isomer, unassigned) [Example 356] yielded an IC50 of less than 5 nM. With `CCOc1ncc(Nc2cc([C@H](CC)CNS(=O)(=O)c3c(C)noc3C)ccc2N(CC)C2CCOCC2)cn1` [Example 1328, (S)-N-(2-(3-((2-ethoxypyrimidin-5-yl)amino)-4-(ethyl(tetrahydro-2H-pyran-4-yl)amino)phenyl)butyl)-3,5-dimethylisoxazole-4-sulfonamide] the IC50 was greater than 50 nM. `CC[C@H](CC(=O)O)c1ccc(N(CC)C2CCOCC2)c(Nc2ccc(S(=O)(=O)CC)cc2)c1` (single isomer, unassigned) [Example 525] was tested, and the IC50 was less than 50 nM. With `CCN(c1ccc([C@H](COC)CC(=O)O)cc1NC(=O)Nc1ccc(Cl)cc1Cl)C1CCOCC1` (single isomer, unassigned) [Example 441] the IC50 was greater than 50 nM. For `CCN(c1cc(F)c([C@@H](COC)CC(=O)O)cc1NC(=O)Nc1ccc(Cl)cc1F)C1CCOCC1` (single isomer, unassigned) [Example 848, 3-(5-(3-(4-Chloro-2-fluorophenyl)ureido)-4-(ethyl(tetrahydro-2H-pyran-4-yl)amino)-2-fluorophenyl)-4-methoxybutanoic acid], the IC50 was less than 5 nM. `CC(CC(=O)O)c1ccc(N(CC(C)(C)O)C2CCCCC2)c(Nc2ccc3c(c2)OC(F)(F)O3)c1` (single isomer, unassigned) [Example 49, 3-(4-(cyclohexyl(2-hydroxy-2-methylpropyl)amino)-3-((2,2-difluorobenzo[d][1,3]dioxol-5-yl)amino)phenyl)butanoic acid] showed an IC50 of less than 50 nM. `CCOc1ncc(Nc2cc(C(CC)CC(=O)O)ccc2N2CCN(C(=O)OC)CC2)cn1` (single isomer, unassigned) [Example 669, 3-(3-((2-Ethoxypyrimidin-5-yl)amino)-4-(4-(methoxycarbonyl)piperazin-1-yl)phenyl)pentanoic acid] showed an IC50 greater than 50 nM. `CC[C@@H](CC(=O)O)c1ccc(N(CC2CC2)CC(C)(C)O)c(Nc2ccc(Cl)cc2)c1` (single isomer, unassigned) [Example 267] was tested, and the IC50 was less than 5 nM. In the case of `COCC(CC(=O)O)c1ccc(N2C[C@@H]3C[C@H]2CN3C(=O)OC(C)(C)C)c(Nc2ccc(C#N)cc2)c1` (single isomer, unassigned) [Example 451 Diastereomer 2], the IC50 is reported as greater than 50 nM. With `CCC(CC(=O)O)c1ccc(N2CCOC(C)(C)C2)c(Nc2ccc(C#N)cc2)c1` (single isomer, unassigned) [Example 1320, 3-(3-((4-cyanophenyl)amino)-4-(2,2-dimethylmorpholino)phenyl)pentanoic acid] the IC50 was > 50 nM and < 50 nM. `CCOc1ncc(Nc2cc(C(CC)CC(=O)O)ccc2N(CCOC)C2CCOCC2)cn1` (single isomer, unassigned) [Example 1260, 3-(3-((2-ethoxypyrimidin-5-yl)amino)-4-((2-methoxyethyl)(tetrahydro-2H-pyran-4-yl)amino)phenyl)pentanoic acid] showed an IC50 of less than 50 nM. `CCOc1ncc(Nc2cc([C@H](CC)Cc3cnco3)ccc2N(CC)C2CCOCC2)cn1` [Example 1335, (R)-N2-(2-Ethoxypyrimidin-5-yl)-N1-ethyl-4-(1-(oxazol-5-yl)butan-2-yl)-N1-(tetrahydro-2H-pyran-4-yl)benzene-1,2-diamine] was tested, and the IC50 was greater than 50 nM. Work on `CCC(CC(=O)O)c1cc(F)c(N(CC)C2CCOCC2)c(Nc2cnc(OCC3CC3)nc2)c1` (single isomer, unassigned) [Example 136, 3-(3-((2-(cyclopropylmethoxy)pyrimidin-5-yl)amino)-4-(ethyl(tetrahydro-2H-pyran-4-yl)amino)-5-fluorophenyl)pentanoic acid] yielded an IC50 of less than 50 nM. `CCC1COCCN1c1ccc([C@@H](COC)CC(=O)O)cc1Nc1ccc(Cl)cc1` (single isomer, unassigned) [Example 1286] showed an IC50 greater than 50 nM. Compound `CCC(CC(=O)O)c1cc(Nc2ccc(C#N)cn2)c(N(CC)C2CCOCC2)cc1F` (single isomer, unassigned) [Example 857, 3-(5-((5-cyanopyridin-2-yl)amino)-4-(ethyl(tetra-hydro-2H-pyran-4-yl)amino)-2-fluorophenyl) pentanoic acid] has an IC50 of less than 50 nM. With `CCOc1ccc(Nc2cc(C(COC)CC(=O)O)cc(F)c2N(CC(C)C)CC(C)C)cc1` (single isomer, unassigned) [Example 923, 3-(4-(diisobutylamino)-3-((4-ethoxyphenyl)amino)-5-fluorophenyl)-4-methoxybutanoic acid] the IC50 was less than 50 nM. Compound `CCC(CC(=O)O)c1cc(F)c(N(CC)C2CCOCC2)c(Nc2ccc(Cl)cc2)c1` (single isomer, unassigned) [Example 133, 3-(3-((4-Chlorophenyl)amino)-4-(ethyl(tetrahydro-2H-pyran-4-yl)amino)-5-fluorophenyl)pentanoic acid] has an IC50 of less than 5 nM. Compound `CCOc1ncc(Nc2cc([C@H](CC)Cc3nnn[nH]3)ccc2N(CC)C2CCOCC2)cn1` [Example 1339, (R)-4-(1-(1H-Tetrazol-5-yl)butan-2-yl)-N2-(2-ethoxypyrimidin-5-yl)-N1-ethyl-N1-(tetrahydro-2H-pyran-4-yl)benzene-1,2-diamine] has an IC50 of less than 5 nM. Work on `CCC(CC(=O)O)c1ccc(N(C)C2CCOCC2)c(Nc2ccc(Cl)cc2)c1` (single isomer, unassigned) [Example 867, 3-(3-((4-Chlorophenyl)amino)-4-(methyl(tetrahydro-2H-pyran-4-yl)amino)phenyl)pentanoic acid] yielded an IC50 of less than 5 nM. In the case of `CCN(c1ccc([C@@H](COC)CC(=O)O)cc1Nc1ccc(C#N)c(C)n1)C1CCOCC1` (single isomer, unassigned) [Example 382], the IC50 is reported as less than 50 nM. Compound `CCC1COCCN1c1ccc([C@H](COC)CC(=O)O)cc1Nc1ccc(Cl)cc1` (single isomer, unassigned) [Example 1292] has an IC50 of less than 50 nM. In the case of `COc1ccc(Nc2cc(C(CC(=O)O)C3CC3)ccc2N2C[C@@H](C)O[C@@H](C)C2)cn1` (single isomer, unassigned) [Example 246], the IC50 is reported as greater than 50 nM. In the case of `CCCN(c1ccc(C(COC)CC(=O)O)cc1Nc1ccc2c(c1)OC(F)(F)O2)C1CCOCC1` (single isomer, unassigned) [Example 571, 3-(3-((2,2-difluorobenzo[d][1,3]dioxol-5-yl)amino)-4-(propyl (tetrahydro-2H-pyran-4-yl)amino)phenyl)-4-methoxybutanoic acid], the IC50 is reported as less than 5 nM. In the case of `CC[C@H](CC(=O)O)c1ccc(N(CC)C2CCOCC2)c(Nc2cnc(C)nc2)c1` (single isomer, unassigned) [Example 1363], the IC50 is reported as less than 5 nM. In the case of “(R)-3-(4-((1,1-dioxidotetrahydro-2H-thiopyran-4-yl)(ethyl)amino)- 3-((2-methoxypyrimidin-5- yl)amino)phenyl)-4- isopropoxybutanoic acid [Example 332]”, the IC50 is reported as greater than 50 nM.
